Assay [1] deals with human Adenosine A1 receptor (Homo sapiens (Human), UniProt P30542). Put plainly: Adenosine receptor TR-FRET binding assay (A1). To be noted: inhibition of binding of 100 nM CA200645, CHO cell membranes. In outline: (§1)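 Compounds were serially diluted 1:3 in DMSO, then incubated with CHO membranes bearing Tb-tagged human receptor plus CA200645 (A2b 30 nM; A1, A2a, A3 100 nM) for 2 h at room temperature. Time-resolved FRET was read, non-specific binding subtracted using 10 μM XAC, and Ki calculated.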
In general terms: Time-resolved FRET reads energy transfer from a long-lived donor to a nearby acceptor.

For assay [2], the target named is human Adenosine A2a receptor (Homo sapiens (Human), UniProt P29274). Put plainly: Adenosine receptor TR-FRET binding assay (A2a). To be noted: inhibition of binding of 100 nM CA200645, CHO cell membranes. In outline: as §1
In assay [3] the target is human Adenosine A2b receptor (Homo sapiens (Human), UniProt P29275). Put plainly: Adenosine receptor TR-FRET binding assay (A2b). To be noted: TR-FRET, inhibition of binding of 30 nM CA200645, CHO cell membranes. Summed up: as §1
The target of assay [4] is human Adenosine A3 receptor (Homo sapiens (Human), UniProt P0DMS8). The assay is described as follows: Adenosine receptor TR-FRET binding assay (A3). The note with it: inhibition of binding of 100 nM CA200645, CHO cell membranes. In outline:
as §1

For another assay, the system named is human PBMCs. The assay is described as follows: CD3/CD28 stimulated IL-2 release NECA reversal assay in human PBMCs. The class given is cell-based. The note with it: PBMC, 1 uM NECA, 24 hours, IL-2 in culture supernatant. Summed up:
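PBMCs from citrated healthy-donor blood plated at 50,000 cells/well on 1 ug/ml CD3 antibody with 1 ug/ml CD28 antibody, 1 uM NECA and 0.003-10 μM antagonist (final), 24 h at 37° C. Supernatant IL-2 measured by MSD immunoassay; % inhibition set against no-NECA control wells as 100%.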

Assay [5] relates to CD8+T cells in human whole blood. Put plainly: Measurement of pCREB in CD8+T cells in human whole blood. The class given is cell-based. To be noted: 3 μM NECA, rolipram. In outline: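 Heparinised human whole blood pre-incubated 20 min at 37 °C with serially diluted A2a antagonists plus rolipram, then stimulated 60 min with 3 μM NECA (final). After fixation and red-cell lysis, white cells were permeabilized and stained for phospho-CREB and CD8; pCREB in CD8+ T cells measured by flow cytometry.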

Assay [6] concerns immature monocyte-derived dendritic cells (MoDC). The assay is described as follows: MoDC pCREB assay. The class given is cell-based, human. The note with it: Homo sapiens, Dendritic cell; pCREB in immature MoDC, 1 μM NECA, rolipram. Summed up: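 Human CD14+ monocytes differentiated 5 days into immature MoDC, pre-incubated 15 min at 37 °C with antagonist plus rolipram, then stimulated with 1 μM NECA for 45 min at 37 °C. Phospho-CREB measured by flow cytometry in gated CD209+/CD86− low cells; IC50 from the inflection point of a sigmoidal curve.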

The structures appear in SMILES notation.

For orientation: Ki means the dissociation constant of the complex between target and ligand, obtained from inhibition or displacement. One may read the IC50 as the midpoint of a concentration-inhibition curve.

Sequence of human Adenosine A1 receptor (P30542 whole entry): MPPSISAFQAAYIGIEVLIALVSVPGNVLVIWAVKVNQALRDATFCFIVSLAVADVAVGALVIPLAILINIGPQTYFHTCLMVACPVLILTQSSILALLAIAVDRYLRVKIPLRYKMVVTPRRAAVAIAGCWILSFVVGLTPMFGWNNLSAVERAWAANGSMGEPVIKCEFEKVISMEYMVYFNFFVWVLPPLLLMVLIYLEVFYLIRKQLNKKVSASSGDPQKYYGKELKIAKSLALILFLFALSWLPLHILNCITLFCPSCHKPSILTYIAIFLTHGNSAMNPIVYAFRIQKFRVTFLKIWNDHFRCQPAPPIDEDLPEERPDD
Sequence of human Adenosine A2a receptor (P29274 whole entry): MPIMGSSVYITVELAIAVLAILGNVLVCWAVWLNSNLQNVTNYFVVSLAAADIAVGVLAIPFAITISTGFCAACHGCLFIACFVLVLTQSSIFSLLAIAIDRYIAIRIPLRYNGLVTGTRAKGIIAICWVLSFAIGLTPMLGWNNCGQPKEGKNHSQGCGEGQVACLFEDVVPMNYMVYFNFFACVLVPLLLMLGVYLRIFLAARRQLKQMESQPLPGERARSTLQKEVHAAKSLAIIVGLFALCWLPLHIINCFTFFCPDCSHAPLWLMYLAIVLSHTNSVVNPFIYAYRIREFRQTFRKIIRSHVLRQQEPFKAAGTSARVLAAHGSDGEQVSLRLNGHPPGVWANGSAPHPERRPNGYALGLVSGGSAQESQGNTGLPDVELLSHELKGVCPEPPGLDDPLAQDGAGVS
Sequence of human Adenosine A2b receptor (P29275 whole entry): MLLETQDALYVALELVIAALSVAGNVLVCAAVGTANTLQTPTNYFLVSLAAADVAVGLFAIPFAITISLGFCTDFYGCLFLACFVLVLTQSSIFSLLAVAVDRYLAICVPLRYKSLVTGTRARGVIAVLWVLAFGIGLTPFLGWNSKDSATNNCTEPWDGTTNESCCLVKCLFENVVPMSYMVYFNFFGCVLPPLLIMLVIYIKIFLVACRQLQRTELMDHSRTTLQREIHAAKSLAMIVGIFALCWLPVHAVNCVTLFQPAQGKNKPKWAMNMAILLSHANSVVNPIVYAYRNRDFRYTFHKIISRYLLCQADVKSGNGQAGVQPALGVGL
Sequence of human Adenosine A3 receptor (P0DMS8 whole entry): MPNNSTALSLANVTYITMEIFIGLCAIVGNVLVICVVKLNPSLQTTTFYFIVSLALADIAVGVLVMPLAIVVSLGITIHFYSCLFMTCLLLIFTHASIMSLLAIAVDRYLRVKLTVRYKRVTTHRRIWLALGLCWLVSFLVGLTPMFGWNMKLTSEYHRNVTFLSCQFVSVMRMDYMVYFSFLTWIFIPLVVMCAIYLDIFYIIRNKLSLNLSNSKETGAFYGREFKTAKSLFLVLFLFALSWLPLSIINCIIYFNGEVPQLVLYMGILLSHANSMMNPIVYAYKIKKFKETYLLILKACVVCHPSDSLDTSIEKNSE

Turning to `Cc1cc(-c2sc(NC(=O)N3CCC4(CC3)NC(=O)N(C)C4=O)nc2-c2cccc(C#N)c2)cc(C)n1` [Example 6.6, N-[4-(3-Cyanophenyl)-5-(2,6-dimethyl-4-pyridyl)thiazol-2-yl]-3-methyl-2,4-dioxo-1,3,8-triazaspiro[4.5]decane-8-carboxamide], the Ki was found to be 81 nM in assay [1], 1.44 nM in assay [2], 1.3 nM in assay [3] and 233 nM in assay [4]. Moreover, the IC50 was 8.2 nM in the assay with human PBMCs, 600 nM in assay [5] and 24 nM in assay [6].
On to `Cc1cc(-c2sc(NC(=O)N3CC4(CCO4)C3)nc2-c2cccc(C#N)c2)cc(C)n1` [Example 6.93, N-[4-(3-Cyanophenyl)-5-(2,6-dimethyl-4-pyridyl)thiazol-2-yl]-1-oxa-6-azaspiro[3.3]heptane-6-carboxamide], for which the Ki is 44 nM in assay [1], 0.31 nM in assay [2], 1.5 nM in assay [3] and 161 nM in assay [4]. Besides, the IC50 was found to be 1.3 nM in the assay with human PBMCs, 50 nM in assay [5] and 9 nM in assay [6].
With `Cc1cc(-c2sc(NC(=O)N3CCC4(COC4)C3)nc2-c2cccc(C#N)c2)cc(C)n1` [Example 6.81, N-[4-(3-Cyanophenyl)-5-(2,6-dimethyl-4-pyridyl)thiazol-2-yl]-2-oxa-7-azaspiro[3.4]octane-7-carboxamide], the Ki in assay [1] turned out to be 49 nM; in assay [2] it was 0.47 nM; in assay [3], 2.3 nM; in assay [4], 292 nM. In addition, the IC50 was determined as 7.6 nM with human PBMCs, 230 nM in assay [5] and 19 nM in assay [6].
Regarding `Cc1cc(-c2sc(NC(=O)N3CC[C@H](C#N)C3)nc2-c2cccc(C#N)c2)cc(C)n1` [Example 4.8, (3S)-3-Cyano-N-[4-(3-cyanophenyl)-5-(2,6-dimethyl-4-pyridyl)thiazol-2-yl]pyrrolidine-1-carboxamide], the Ki was determined as 17 nM in assay [1], 0.37 nM in assay [2], 1.5 nM in assay [3] and 180 nM in assay [4]. The values for the IC50 (in the assay with human PBMCs; in assay [5]; in assay [6]) were 1.1 nM, 40 nM and 12 nM, respectively.

For the origin of these results see patent US20230293517A1, “ANTAGONIST COMPOUNDS” (AdoRx Therapeutics Limited, priority 2020, published 2023).
